Results: ChEMBL document CHEMBL4219047, “Optimization of peptide-based polyagonists for treatment of diabetes and obesity” (Bioorg Med Chem, 2018)

Legend:
Assay type in all cases: functional, cell-based
[1] = target: T1, Glucagon-like peptide 1 receptor (Homo sapiens, UniProt P43220); experiment: Agonist activity at human GLP1 receptor expressed in HEK293 cells assessed as increase in cAMP level after 5 hrs by CRE driven luciferase reporter gene assay
Glucagon receptor [2] = target: T2, Glucagon receptor (Homo sapiens, UniProt P47871); experiment: Agonist activity at human GCG receptor expressed in HEK293 cells assessed as increase in cAMP level after 5 hrs by CRE driven luciferase reporter gene assay
T2 sequence (P47871 whole entry): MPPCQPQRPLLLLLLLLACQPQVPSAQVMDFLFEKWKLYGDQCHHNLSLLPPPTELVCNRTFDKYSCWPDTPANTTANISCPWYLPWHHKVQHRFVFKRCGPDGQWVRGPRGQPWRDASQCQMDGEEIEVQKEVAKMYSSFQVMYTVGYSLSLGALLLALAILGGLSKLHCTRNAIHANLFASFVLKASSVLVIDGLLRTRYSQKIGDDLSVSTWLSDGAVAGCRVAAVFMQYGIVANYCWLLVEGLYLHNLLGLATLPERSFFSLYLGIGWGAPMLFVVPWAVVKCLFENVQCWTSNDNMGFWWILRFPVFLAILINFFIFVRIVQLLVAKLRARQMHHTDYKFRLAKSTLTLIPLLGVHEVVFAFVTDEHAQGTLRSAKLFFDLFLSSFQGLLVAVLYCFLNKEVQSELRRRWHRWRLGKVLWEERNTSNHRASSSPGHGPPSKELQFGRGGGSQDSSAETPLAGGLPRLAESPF

[3] = target: T3, Gastric inhibitory polypeptide receptor (Homo sapiens, UniProt P48546); experiment: Agonist activity at human GIP receptor expressed in HEK293 cells assessed as increase in cAMP level after 5 hrs by CRE driven luciferase reporter gene assay
T3 sequence (P48546 whole entry): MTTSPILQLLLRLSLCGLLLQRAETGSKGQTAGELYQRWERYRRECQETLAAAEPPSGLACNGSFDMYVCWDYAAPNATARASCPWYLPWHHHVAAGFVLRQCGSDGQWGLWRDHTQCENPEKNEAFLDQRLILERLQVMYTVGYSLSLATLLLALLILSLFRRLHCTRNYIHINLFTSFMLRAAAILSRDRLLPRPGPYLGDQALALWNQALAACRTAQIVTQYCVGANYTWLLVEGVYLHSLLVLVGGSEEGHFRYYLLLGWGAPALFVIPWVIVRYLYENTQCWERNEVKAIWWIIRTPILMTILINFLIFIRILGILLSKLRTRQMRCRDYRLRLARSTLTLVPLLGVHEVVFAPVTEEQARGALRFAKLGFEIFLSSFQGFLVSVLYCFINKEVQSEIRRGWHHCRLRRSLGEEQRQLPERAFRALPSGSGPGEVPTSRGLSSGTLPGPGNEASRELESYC

[4] = target: T1, Glucagon-like peptide 1 receptor; experiment: Agonist activity at human GLP1 receptor expressed in HEK293 cells assessed as increase in cAMP level after 5 hrs by CRE driven luciferase reporter gene assay relative to GLP1; parameters: concentration or dose not given beside the values
Glucagon receptor [5] = target: T2, Glucagon receptor; experiment: Agonist activity at human GCG receptor expressed in HEK293 cells assessed as increase in cAMP level after 5 hrs by CRE driven luciferase reporter gene assay relative to glucagon
[6] = target: T4, Gastric inhibitory polypeptide receptor (Homo sapiens) (UniProt P48546); experiment: Agonist activity at human GIP receptor expressed in HEK293 cells assessed as increase in cAMP level after 5 hrs by CRE driven luciferase reporter gene assay relative to GIP; parameters: concentration or dose not given beside the values
T4 sequence (whole entry): T3 sequence (P48546 whole entry)

T1 sequence (P43220 whole entry): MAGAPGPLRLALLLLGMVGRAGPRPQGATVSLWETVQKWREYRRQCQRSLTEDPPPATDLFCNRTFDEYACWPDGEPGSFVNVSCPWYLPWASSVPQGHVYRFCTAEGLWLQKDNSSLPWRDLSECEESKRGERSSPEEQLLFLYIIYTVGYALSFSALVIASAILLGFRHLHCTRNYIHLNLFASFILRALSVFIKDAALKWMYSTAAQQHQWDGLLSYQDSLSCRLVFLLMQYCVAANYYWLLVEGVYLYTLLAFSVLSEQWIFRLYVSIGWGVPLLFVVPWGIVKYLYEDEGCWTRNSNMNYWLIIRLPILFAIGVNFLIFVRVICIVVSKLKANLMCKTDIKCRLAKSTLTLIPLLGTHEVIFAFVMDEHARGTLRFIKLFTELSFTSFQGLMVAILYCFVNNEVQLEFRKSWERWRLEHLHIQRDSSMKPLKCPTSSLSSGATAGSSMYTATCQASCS

Compound	EC50 [1] [nM]	EC50 (Glucagon receptor [2]) [nM]	EC50 [3] [nM]	Activity [4] [%]	Activity (Glucagon receptor [5]) [%]	Activity [6] [%]
CCCCCCCCCCCCCCCC(=O)N[C@@H](CCC(=O)NCCCC[C@H](NC(=O)[C@H](CC(=O)O)NC(=O)[C@H](CO)NC(=O)[C@@H](NC(=O)[C@H](Cc1ccccc1)NC(=O)[C@@H](NC(=O)CNC(=O)[C@H](CCC(N)=O)NC(=O)[C@@H](CO)NC(=O)[C@@H](N)Cc1cnc[nH]1)[C@@H](C)O)[C@@H](C)O)C(=O)N[C@@H](CO)C(=O)N[C@@H](CCCCN)C(=O)N[C@@H](Cc1ccc(O)cc1)C(=O)N[C@@H](CC(C)C)C(=O)N[C@@H](CC(=O)O)C(=O)N[C@@H](CCC(=O)O)C(=O)N[C@@H](CCC(N)=O)C(=O)N[C@@H](C)C(=O)N[C@@H](C)C(=O)N[C@@H](CCCCN)C(=O)N[C@@H](CCC(=O)O)C(=O)N[C@@H](Cc1ccccc1)C(=O)N[C@H](C(=O)N[C@@H](C)C(=O)N[C@@H](Cc1c[nH]c2ccccc12)C(=O)N[C@@H](CC(C)C)C(=O)N[C@@H](CCSC)C(=O)N[C@@H](CC(N)=O)C(=O)N[C@H](C(N)=O)[C@@H](C)O)[C@@H](C)CC)C(=O)O	0.039	0.041	2.69	72	78	1
CCCCCCCCCCCCCCCC(=O)N[C@@H](CCC(=O)NCCCC[C@H](NC(=O)[C@H](CC(=O)O)NC(=O)[C@H](CO)NC(=O)[C@@H](NC(=O)[C@H](Cc1ccccc1)NC(=O)[C@@H](NC(=O)CNC(=O)[C@H](CCC(N)=O)NC(=O)C(C)(C)NC(=O)[C@@H](N)Cc1cnc[nH]1)[C@@H](C)O)[C@@H](C)O)C(=O)N[C@@H](CO)C(=O)N[C@@H](CCCCN)C(=O)N[C@@H](Cc1ccc(O)cc1)C(=O)N[C@@H](CC(C)C)C(=O)N[C@@H](CC(=O)O)C(=O)NC(C)(C)C(=O)N[C@@H](CCCNC(=N)N)C(=O)N[C@@H](C)C(=O)N[C@@H](C)C(=O)N[C@@H](CCC(N)=O)C(=O)N[C@@H](CC(=O)O)C(=O)N[C@@H](Cc1ccccc1)C(=O)N[C@H](C(=O)N[C@@H](CCC(N)=O)C(=O)N[C@@H](Cc1c[nH]c2ccccc12)C(=O)N[C@@H](CC(C)C)C(=O)N[C@@H](CCSC)C(=O)N[C@@H](CC(=O)O)C(=O)N[C@H](C(N)=O)[C@@H](C)O)C(C)C)C(=O)O	0.015	0.028	2.19	187	114	1
CCCCCCCCCCCCCCCC(=O)N[C@@H](CCC(=O)NCCCC[C@H](NC(=O)[C@H](CC(=O)O)NC(=O)[C@H](CO)NC(=O)[C@@H](NC(=O)[C@H](Cc1ccccc1)NC(=O)[C@@H](NC(=O)CNC(=O)[C@H](CCC(N)=O)NC(=O)CN(C)C(=O)[C@@H](N)Cc1cnc[nH]1)[C@@H](C)O)[C@@H](C)O)C(=O)N[C@@H](CO)C(=O)N[C@@H](CCCCN)C(=O)N[C@@H](Cc1ccc(O)cc1)C(=O)N[C@@H](CC(C)C)C(=O)N[C@@H](CC(=O)O)C(=O)N[C@@H](CCC(=O)O)C(=O)N[C@@H](CCCNC(=N)N)C(=O)N[C@@H](C)C(=O)N[C@@H](C)C(=O)N[C@@H](CCC(N)=O)C(=O)N[C@@H](CC(=O)O)C(=O)N[C@@H](Cc1ccccc1)C(=O)N[C@H](C(=O)N[C@@H](CCC(N)=O)C(=O)N[C@@H](Cc1c[nH]c2ccccc12)C(=O)N[C@@H](CC(C)C)C(=O)N[C@@H](CC(C)C)C(=O)N[C@@H](CC(=O)O)C(=O)N[C@H](C(N)=O)[C@@H](C)O)C(C)C)C(=O)O	0.115	0.016	5.83	24	200	0
CCCCCCCCCCCCCCCC(=O)N[C@@H](CCC(=O)NCCCC[C@H](NC(=O)[C@H](CC(=O)O)NC(=O)[C@H](CO)NC(=O)[C@@H](NC(=O)[C@H](Cc1ccccc1)NC(=O)[C@@H](NC(=O)CNC(=O)[C@H](CCC(N)=O)NC(=O)C(C)(C)NC(=O)[C@@H](N)Cc1cnc[nH]1)[C@@H](C)O)[C@@H](C)O)C(=O)N[C@@H](CO)C(=O)N[C@@H](CCCCN)C(=O)N[C@@H](Cc1ccc(O)cc1)C(=O)N[C@@H](CC(C)C)C(=O)N[C@@H](CC(=O)O)C(=O)N[C@@H](CCC(=O)O)C(=O)N[C@@H](CCCNC(=N)N)C(=O)N[C@@H](C)C(=O)N[C@@H](C)C(=O)N[C@@H](CCC(N)=O)C(=O)N[C@@H](CC(=O)O)C(=O)N[C@@H](Cc1ccccc1)C(=O)N[C@H](C(=O)N[C@@H](CCC(N)=O)C(=O)N[C@@H](Cc1c[nH]c2ccccc12)C(=O)N[C@@H](CC(C)C)C(=O)N[C@@H](CC(C)C)C(=O)N[C@@H](CC(=O)O)C(=O)NCC(=O)N[C@@H](CCCNC(=N)N)C(=O)NCC(N)=O)C(C)C)C(=O)O	0.004	–	0.133	700	457	15
CCCCCCCCCCCCCCCC(=O)N[C@@H](CCC(=O)NCCCC[C@H](NC(=O)[C@H](CC(=O)O)NC(=O)[C@H](CO)NC(=O)[C@@H](NC(=O)[C@H](Cc1ccccc1)NC(=O)[C@@H](NC(=O)CNC(=O)[C@H](CCC(N)=O)NC(=O)[C@@H](C)NC(=O)[C@@H](N)Cc1cnc[nH]1)[C@@H](C)O)[C@@H](C)O)C(=O)N[C@@H](CO)C(=O)N[C@@H](CCCCN)C(=O)N[C@@H](Cc1ccc(O)cc1)C(=O)N[C@@H](CC(C)C)C(=O)N[C@@H](CC(=O)O)C(=O)N[C@@H](CCC(=O)O)C(=O)N[C@@H](CCCNC(=N)N)C(=O)N[C@@H](C)C(=O)N[C@@H](C)C(=O)N[C@@H](CCC(N)=O)C(=O)N[C@@H](CC(=O)O)C(=O)N[C@@H](Cc1ccccc1)C(=O)N[C@H](C(=O)N[C@@H](CCC(N)=O)C(=O)N[C@@H](Cc1c[nH]c2ccccc12)C(=O)N[C@@H](CC(C)C)C(=O)N[C@@H](CC(C)C)C(=O)N[C@@H](CC(=O)O)C(=O)N[C@H](C(N)=O)[C@@H](C)O)C(C)C)C(=O)O	0.04	0.009	–	70	356	1
CCCCCCCCCCCCCCCC(=O)N[C@@H](CCC(=O)NCCCC[C@H](NC(=O)[C@H](CC(=O)O)NC(=O)[C@H](CO)NC(=O)[C@@H](NC(=O)[C@H](Cc1ccccc1)NC(=O)[C@@H](NC(=O)CNC(=O)[C@H](CCC(N)=O)NC(=O)[C@@H](CO)NC(=O)[C@@H](N)Cc1cnc[nH]1)[C@@H](C)O)[C@@H](C)O)C(=O)N[C@@H](CO)C(=O)N[C@@H](CCCCN)C(=O)N[C@@H](Cc1ccc(O)cc1)C(=O)N[C@@H](CC(C)C)C(=O)N[C@@H](CC(=O)O)C(=O)N[C@@H](CCC(=O)O)C(=O)N[C@@H](CCCNC(=N)N)C(=O)N[C@@H](C)C(=O)N[C@@H](C)C(=O)N[C@@H](CCC(N)=O)C(=O)N[C@@H](CC(=O)O)C(=O)N[C@@H](Cc1ccccc1)C(=O)N[C@H](C(=O)N[C@@H](CCC(N)=O)C(=O)N[C@@H](Cc1c[nH]c2ccccc12)C(=O)N[C@@H](CC(C)C)C(=O)N[C@@H](CC(C)C)C(=O)N[C@@H](CC(=O)O)C(=O)NCC(=O)N[C@@H](CCCNC(=N)N)C(=O)NCC(N)=O)C(C)C)C(=O)O	–	–	–	1400	800	2
